# Experimental data as given in patent US20240024280A1, “SENOTHERAPEUTIC SUBSTANCE” (BIONEXA S.R.L, priority 2020, published 2024).
# Test system: senescent MCF7 cells
# Test: Senolytic activity on doxorubicin-induced senescent MCF7 cells (crystal violet cell survival)
# Type: cell-based, human
# Conditions: 72 h treatment; vitamin C and palmitic acid administered alone at the same doses investigated
# Method: Briefly, senescence of MCF7 human mammary epithelium cells (human breast adenocarcinoma cells, ATCC® HTB-22™) was induced in vitro by treatment with doxorubicin (for 24 h), at a non-apoptotic concentration (200 nM), and subsequent cell recovery (in optimal culture medium, without treatments) for 10 days. The successful conversion to the senescent cell phenotype was confirmed by morphological changes (flattening and cell enlargement) and positivity for lysosomal beta-galactosidase (β-GAL). The SA-β-GAL (senescence-associated p-GAL) senescence assay was performed with the SA-β-Gal Staining Kit (Cell Signaling Technology, Inc., Danvers, MA). In this case, after fixation with […] for 15 min at room temperature, the senescent cells were quantified by calculating the percentage of SA-β-GAL positive cells (colored blue) present in culture, examining ≥200 cells per well with the phase contrast microscope EVOS XL Cell Imaging System (Thermo Fisher; objective, 40×). […] At the end of the treatments, cell survival was quantified by crystal violet staining. […] After further washing with water (3×), 100 μl of acetic acid (10%) were added per well and the absorbance (λ=590 nm) measured with a Synergy spectrophotometer (AHSI). […] Senolytic activity was expressed as % of senescent cells eliminated with respect to the control condition (DMSO). […]
row,Compound,senolytic effects (in words)
1,CCCCCCCCCCCCCCCC(=O)O [palmitic acid],absence of significant senolytic effects
2,"O=C1O[C@H]([C@@H](O)CO)C(O)=C1O [vitamin C, L-Ascorbic Acid]",absence of significant senolytic effects
